The numbers were not newly measured in patent US20030093057A1, “Methods and formulations for photodynamic therapy” (priority 2001, published 2003), which cites them from elsewhere.

Read-outs that look alike come from different tables or passages of the source.

The conditions of data set [1]: mouse skin.
For data set [2] the following is noted: human skin.

For `NCC(=O)CCC(=O)O` [ALA, delta-aminolevulinic acid], the “penetration of ALA into skin at increased temperature” value in data set [1] and in data set [2] was “did not cause increased penetration” in each case.
